From ChEMBL document CHEMBL3045455, “Design, synthesis and evaluation of novel indomethacinflavonoid mutual prodrugs as safer NSAIDs” (Med Chem Res, 2011)

Assays:
[1] = tested on: Rattus norvegicus; assay: Gastrointestinal toxicity in Rattus norvegicus Sprague-Dawley (rat) assessed as ulcer index at 82 mg/kg, po measured after 8 hr (reference value: 0.2 +/- 0.06); format: organism-based; design: dose 82 mg/kg, route oral; details: in vivo
[2] = tested on: Rattus norvegicus; assay: Anti-inflammatory activity in carrageenan-induced paw edema Rattus norvegicus Sprague-Dawley (rat) model assessed as increase in paw volume at 23.95 mg/kg, po measured after 4 hr; format: functional
[3] = tested on: Rattus norvegicus; assay: Anti-inflammatory activity in carrageenan-induced paw edema Rattus norvegicus Sprague-Dawley (rat) model assessed as increase in paw volume at 23.95 mg/kg, po measured after 2 hr; format: functional
[4] = tested on: Mus musculus; assay: Analgesic activity in Mus musculus LACCA (mouse) assessed as inhibition of acetic acid-induced writhing at 17.1 mg/kg, po measured during 20 min period beginning 3 min after acetic acid challenge
[5] = tested on: Rattus norvegicus; assay: Gastrointestinal toxicity in Rattus norvegicus Sprague-Dawley (rat) assessed as ulcer index at 48 mg/kg, po measured after 8 hr (reference value: 0.2 +/- 0.06); format: organism-based; design: dose 48 mg/kg, route oral; details: in vivo
[6] = tested on: Rattus norvegicus; assay: Anti-inflammatory activity in carrageenan-induced paw edema Rattus norvegicus Sprague-Dawley (rat) model assessed as increase in paw volume at 12 mg/kg, po measured after 4 hr; format: functional
[7] = tested on: Rattus norvegicus; assay: Anti-inflammatory activity in carrageenan-induced paw edema Rattus norvegicus Sprague-Dawley (rat) model assessed as increase in paw volume at 12 mg/kg, po measured after 2 hr; format: functional
[8] = tested on: Mus musculus; assay: Analgesic activity in Mus musculus LACCA (mouse) assessed as inhibition of acetic acid-induced writhing at 10 mg/kg, po measured during 20 min period beginning 3 min after acetic acid challenge
[9] = tested on: Rattus norvegicus; assay: Gastrointestinal toxicity in Rattus norvegicus Sprague-Dawley (rat) assessed as ulcer index at 83.98 mg/kg, po measured after 8 hr (reference value: 0.2 +/- 0.06); format: organism-based; design: dose 83.98 mg/kg, route oral; details: in vivo
[10] = tested on: Rattus norvegicus; assay: Anti-inflammatory activity in carrageenan-induced paw edema Rattus norvegicus Sprague-Dawley (rat) model assessed as increase in paw volume at 20.52 mg/kg, po measured after 4 hr; format: functional
[11] = tested on: Rattus norvegicus; assay: Anti-inflammatory activity in carrageenan-induced paw edema Rattus norvegicus Sprague-Dawley (rat) model assessed as increase in paw volume at 20.52 mg/kg, po measured after 2 hr; format: functional
[12] = tested on: Mus musculus; assay: Analgesic activity in Mus musculus LACCA (mouse) assessed as inhibition of acetic acid-induced writhing at 17.49 mg/kg, po measured during 20 min period beginning 3 min after acetic acid challenge

Q: How did the UI [1] turn out when `COc1ccc2c(c1)c(CC(=O)Oc1cc(O)c3c(c1)O[C@H](c1ccc(O)cc1)CC3=O)c(C)n2C(=O)c1ccc(Cl)cc1` [INDOMETHACIN-NARINGENIN] was run?
A: 0.62

Q: And the Activity [2]?
A: 40.46%

Q: And the Activity [3]?
A: 39.13%

Q: What about the inhibition in vivo at 17.1 mg/kg [4] of the same molecule?
A: 86.7%

Q: Which UI [5] does the source give for `COc1ccc2c(c1)c(CC(=O)O)c(C)n2C(=O)c1ccc(Cl)cc1` [INDOMETHACIN] here?
A: 5.54

Q: What about the Activity [6] of the same molecule?
A: 57.39%

Q: And the Activity [7]?
A: 48.35%

Q: And the inhibition in vivo at 10 mg/kg [8]?
A: 74.2%

Q: What does the source list for `COc1ccc2c(c1)c(CC(=O)Oc1cc(O)c3c(c1)O[C@H](c1ccc(OC)c(O)c1)CC3=O)c(C)n2C(=O)c1ccc(Cl)cc1` [INDOMETHACIN-HESPERTIN]?
A: UI [9]: 0.54; Activity [10]: 38.22%; Activity [11]: 37.78%; inhibition in vivo at 17.49 mg/kg [12]: 89.4%
